Reference: patent publication US20260158009A1 (GENZYME CORPORATION, priority 2023, published 2026)

What was measured:
U937 cells = assay: Cellular assay in U937 cells: activity of RIPK1 inhibitors on TNFα/zVAD.fmk-induced cell death (necroptosis), CellTiter 96 AQueous (MTS) readout; format: cell-based; conditions: Homo sapiens, U-937
Description: Upon TNF-Receptor I ligation, Ser/Thr kinase RIPK1 is recruited to a transient receptor complex 1. Upon modification of RIPK1 which promotes activation of RIPK1, complex IIb can form, that involves recruitment of RIPK3 and MLKL (mixed lineage-kinase domain-like protein) which then translocates from the cytosol to the plasma membrane to execute cell death (Cai, Z. et al, Nat. Cell Biol. (2014) 16:55-65).
Cell death was quantified in 96 well plates by determination of the amount of live cell using a CellTiter 96 AQueous reagent (Promega), a calorimetric method to measure the number of live cells by reducing tetrazolium compound [3-(4,5-dimethylthiazol-2-yl)-5-(3-carboxymethoxyphenyl)-2-(4-sulfophenyl)-2H-tetrazolium, inner salt; MTS] into formazan. Absorbance of formazan was read at 490 nm. The inhibitory activity of the test compound was quantified in a concentration response curve (CRC) experiment.
Compounds were obtained as 10 mM stock solutions and were diluted 1 to 10 volumes with DMSO to yield a 1 mM solution. From this solution 2 μl were diluted with 998 μl growth medium. 100 μl of 2 μM compound solution was further diluted sequentially with a dilution factor of 2.5 by adding 150 μl growth medium. A total of 10 concentrations were tested ranging from 10 μM to 0.26 nM or from 1 μM to 0.07 nM.
U937 cells were cultured in RPMI1640 Glutamax and 10% heat inactivated FBS. 50 μl cell suspension containing 1×10^6 cells/ml supplemented with 50 μM zVAD.fmk (Benzyloxycarbonyl-Val-Ala-Asp (OMe) fluoromethylketone) and 100 ng/ml recombinant human TNF[…] were dispensed in each well of a 96-well plate. 50 μl of compound dilutions (described in Cellular assay in U937 cells) were added and the cell suspension incubated overnight (18 to 24 hrs) at 37° C., 5% CO2 in a humidified atmosphere (95% rH). High (no compound) and low control (no TNF[…], zVAD.fmk) were tested with 7 replicates; all compound concentrations were tested in duplicates on each experimental plate.
CellTiter 96 Aqueous reagent was mixed (100 μl PMS (phenazine methosulfate) solution/2 ml MTS (3-(4,5-[…])-5-(3-carboxymethoxyphenyl)-2-(4-sulfophenyl)-2H-tetrazolium, inner salt) solution) and 20 μl were added per well. After 4 hrs incubation at 37° C. (5% CO2 95% rH) optical density was measured at 490 nm on a microplate reader (Tecan Infinite M1000).
The % inhibition is expressed as percentage of the maximal inhibition value obtained in the absence of TNFα/zVAD.fmc.

[1] = molecular target: T1, hRIPK1 (aa 1-375) fusion protein (Homo sapiens, UniProt Q13546); assay: ADP-Glo kinase assay: catalytic activity of RIPK1 (autophosphorylation, conversion of ATP to ADP); format: biochemical
T1 construct: hRIPK1 (aa 1-375) fusion protein
T1 sequence (Q13546 1-375): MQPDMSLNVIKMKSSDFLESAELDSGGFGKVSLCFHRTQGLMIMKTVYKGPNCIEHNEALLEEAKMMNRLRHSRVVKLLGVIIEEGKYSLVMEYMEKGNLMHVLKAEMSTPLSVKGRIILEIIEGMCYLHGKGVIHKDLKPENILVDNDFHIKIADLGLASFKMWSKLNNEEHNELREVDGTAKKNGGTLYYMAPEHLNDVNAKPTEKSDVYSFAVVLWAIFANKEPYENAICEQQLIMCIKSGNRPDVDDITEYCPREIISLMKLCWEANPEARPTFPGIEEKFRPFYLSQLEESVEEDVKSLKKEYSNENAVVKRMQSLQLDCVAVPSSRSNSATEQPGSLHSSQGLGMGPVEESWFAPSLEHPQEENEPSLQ
Experimental: The catalytic activity of RIPK1 was measured by monitoring the conversion of Adenosine triphosphate (ATP) to Adenosine diphosphate (ADP) due to autophosphorylation using an ADP-Glo kinase kit (Promega, catalog no. V9104).
In detail, 2 μl recombinantly produced hRIPK1 (aa 1-375) fusion protein (end concentration 3.6 μg/ml) and 2 μl compound (end concentration 33300-1.69 nM; DMSO end concentration 1%) were incubated for 30 minutes at room temperature and then 2 μl ATP (ADP Glo kit, end concentration 50 μM) were added. After another 240 minutes incubation at room temperature, 5 μl Promega ADP-Glo reagent I was added to quench the reaction and deplete unconsumed ATP. After an incubation period of 30 minutes, 10 μl Promega ADP-Glo detection reagent II was added resulting in conversion of ADP to ATP, which generates a light-reaction between luciferase and luciferin. Luminescence was quantified after 30 minutes with a Pherastar FS (BMG LABTECH, Ortenberg).
The adjustment was obtained by nonlinear regression using the Levenberg Marquardt algorithm.

| Compound | IC50 [1] [nM] | IC50 (U937 cells) [nM] |
| --- | --- | --- |
| COc1cncc([C@@H]2CCON2C(=O)[C@H]2CC[C@H](Cn3ncc4ccc(C(N)=O)cc43)CC2)n1 [Compound 201, trans-1-[[4-[(3S)-3-(6-methoxypyrazin-2-yl)isoxazolidine-2-carbonyl]cyclohexyl]methyl]indazole-6-carboxamide] | 62 | 190 |
| NC(=O)c1ccc2cn(C[C@H]3CC[C@H](C(=O)N4OCC[C@H]4c4cnccn4)CC3)nc2c1 [Compound 228, trans-2-[[4-[(3S)-3-pyrazin-2-ylisoxazolidine-2-carbonyl]cyclohexyl]methyl]indazole-6-carboxamide] | 65 | 191 |
| NC(=O)c1ccc2cnn(C[C@H]3CC[C@H](C(=O)N4OCC[C@H]4c4cnccn4)CC3)c2c1 [Compound 229, trans-1-[[4-[(3S)-3-pyrazin-2-ylisoxazolidine-2-carbonyl]cyclohexyl]methyl]indazole-6-carboxamide] | 25 | 78 |
| NC(=O)c1ccc2cnn(C[C@H]3CC[C@H](C(=O)N4OCC[C@H]4c4ccccn4)CC3)c2c1 [Compound 230, trans-1-[[4-[(3S)-3-(2-pyridyl)isoxazolidine-2-carbonyl]cyclohexyl]methyl]indazole-6-carboxamide] | 131 | 376 |
| Cc1nc([C@@H]2CCON2C(=O)[C@H]2CC[C@H](Cn3cc4ccc(C(N)=O)cc4n3)CC2)cs1 [Compound 233, trans-2-[[4-[(3S)-3-(2-methylthiazol-4-yl)isoxazolidine-2-carbonyl]cyclohexyl]methyl]indazole-6-carboxamide] | 114 | 384 |
| Cc1nc([C@@H]2CCON2C(=O)[C@H]2CC[C@H](Cn3ncc4ccc(C(N)=O)cc43)CC2)cs1 [Compound 234, trans-1-[[4-[(3S)-3-(2-methylthiazol-4-yl)isoxazolidine-2-carbonyl]cyclohexyl]methyl]indazole-6-carboxamide] | 49 | 126 |
| N#Cc1cc(F)cc([C@@H]2CCON2C(=O)[C@H]2CC[C@H](Cc3cc(F)cc(CO)c3)CC2)c1 [Compound 256, trans-3-fluoro-5-[(3S)-2-[4-[[3-fluoro-5-(hydroxymethyl)phenyl]methyl]cyclohexanecarbonyl]isoxazolidin-3-yl]benzonitrile] | 15 | 1 |
| Cn1cc(C[C@H]2CC[C@H](C(=O)N3OCC[C@H]3c3cc(F)cc(C#N)c3)CC2)nn1 [Compound 258, trans-3-fluoro-5-[(3S)-2-[4-[(1-methyltriazol-4-yl)methyl]cyclohexanecarbonyl]isoxazolidin-3-yl]benzonitrile] | 71 | 862 |
| Cc1nc2cc(C[C@H]3CC[C@H](C(=O)N4OCC[C@H]4c4cccc(C#N)c4)CC3)ccn2n1 [compound 1, trans-3-[(3S)-2-[4-[(2-methyl-[1,2,4]triazolo[1,5-a]pyridin-7-yl)methyl]cyclohexanecarbonyl]isoxazolidin-3-yl]benzonitrile] | 21 | 29 |
| N#Cc1cc(F)cc([C@@H]2CCON2C(=O)[C@H]2CC[C@H](Cn3ccc4ncc(C#N)cc43)CC2)c1 [compound 2, trans-1-((4-((S)-3-(3-cyano-5-fluorophenyl)isoxazolidine-2-carbonyl)cyclohexyl)methyl)-1H-pyrrolo[3,2-b]pyridine-6-carbonitrile] | 33 | 9 |
| N#Cc1cnc2ccn(C[C@H]3CC[C@H](C(=O)N4OCC[C@H]4c4cncc(F)c4)CC3)c2c1 [compound 3, trans-1-((4-((S)-3-(5-fluoropyridin-3-yl)isoxazolidine-2-carbonyl)cyclohexyl)methyl)-1H-pyrrolo[3,2-b]pyridine-6-carbonitrile] | 22 | 18 |
| Cc1ncn(C[C@H]2CC[C@H](C(=O)N3OCC[C@H]3c3cncc(F)c3)CC2)c1C#N [compound 4, trans-1-((4-((S)-3-(5-fluoropyridin-3-yl)isoxazolidine-2-carbonyl)cyclohexyl)methyl)-4-methyl-1H-imidazole-5-carbonitrile] | 116 | 721 |

Continued, in another order:

| IC50 [1] [nM] | Compound | IC50 (U937 cells) [nM] |
| --- | --- | --- |
| 26 | Cc1cc(C[C@H]2CC[C@H](C(=O)N3OCCC3c3cnccn3)CC2)c(C)cn1 (stereo in doubt) [compound 356, trans-[4-(2,5-Dimethyl-pyridin-4-ylmethyl)-cyclohexyl]-((S)-3-pyrazin-2-yl-isoxazolidin-2-yl)-methanone] | 5 |
| 45 | N#Cc1cc(F)cc([C@@H]2CCON2C(=O)[C@H]2CC[C@H](Cn3cnc4cc(C#N)ccc43)CC2)c1 [compound 5, trans-1-((4-((S)-3-(3-cyano-5-fluorophenyl)isoxazolidine-2-carbonyl)cyclohexyl)methyl)-1H-benzo[d]imidazole-5-carbonitrile] | 244 |
| 154 | N#Cc1ccc2c(c1)ncn2C[C@H]1CC[C@H](C(=O)N2OCC[C@H]2c2cncc(F)c2)CC1 [compound 6, trans-1-((4-((S)-3-(5-fluoropyridin-3-yl)isoxazolidine-2-carbonyl)cyclohexyl)methyl)-1H-benzo[d]imidazole-5-carbonitrile] | 377 |
| 15 | N#Cc1cc(F)cc([C@@H]2CCON2C(=O)[C@H]2CC[C@H](Cn3cnc4ccccc43)CC2)c1 [compound 7, trans-3-((S)-2-(4-((1H-benzo[d]imidazol-1-yl)methyl)cyclohexane-1-carbonyl)isoxazolidin-3-yl)-5-fluorobenzonitrile] | 9 |
| 19 | O=C([C@H]1CC[C@H](Cn2cnc3ccccc32)CC1)N1OCC[C@H]1c1cc(F)cc(F)c1 [compound 8, trans-(4-((1H-benzo[d]imidazol-1-yl)methyl)cyclohexyl)((S)-3-(3,5-difluorophenyl)isoxazolidin-2-yl)methanone] | 6 |
| 20 | N#Cc1cc(F)cc([C@@H]2CCON2C(=O)[C@H]2CC[C@H](Cc3ccc(F)c(C#N)c3)CC2)c1 [compound 244, trans-5-[[4-[(3S)-3-(3-cyano-5-fluoro-phenyl)isoxazolidine-2-carbonyl]cyclohexyl]methyl]-2-fluoro-benzonitrile] |  |
| 35 | COc1cc(CC2CCC(C(=O)N3OCC[C@H]3c3cnccn3)CC2)cn2nc(C)nc12 (stereo partly drawn) [compound 314, [4-[(8-methoxy-2-methyl-[1,2,4]triazolo[1,5-a]pyridin-6-yl)methyl]cyclohexyl]-[(3S)-3-pyrazin-2-yl-1,2-oxazolidin-2-yl]methanone] |  |
| 94 | COc1cc(C[C@H]2CC[C@H](C(=O)N3OCC[C@H]3c3csc(C)n3)CC2)cn2nc(C)nc12 [compound 367, trans-[4-(8-Methoxy-2-methyl-[1,2,4]triazolo[1,5-a]pyridin-6-ylmethyl)-cyclohexyl]-[(S)-3-(2-methyl-thiazol-4-yl)-isoxazolidin-2-yl]-methanone] |  |
| 80 | Cc1cnc([C@@H]2CCON2C(=O)[C@H]2CC[C@H](Cc3cnc4c(C)nn(C)c4c3)CC2)cn1 [compound 410, [4-[(1,3-dimethylpyrazolo[4,3-b]pyridin-6-yl)methyl]cyclohexyl]-[(3S)-3-(5-methylpyrazin-2-yl)-1,2-oxazolidin-2-yl]methanone] |  |
